Assay results as given in paper PMC4957090, “A novel allele of L-galactono-1,4-lactone dehydrogenase is associated with enhanced drought tolerance through affecting stomatal aperture in common wheat” (Scientific Reports, 2016).

Columns and labels:
[1] = biological target: T1, TaGLDH-B1 (Triticum aestivum, UniProt W5FJN8); test: cytochrome c reduction, absorbance at […] nm, crude mitochondrial fraction; assay type: biochemical; conditions: 4 μM L-GalL, 60 μM cytochrome c, 50 mM Tris-HCl pH 8.0, 0.15% Triton X-100; against PEBV:GUS control
T1 construct: gene LOC123111215; crude mitochondrial fraction
T1 sequence (W5FJN8 entry or part of it): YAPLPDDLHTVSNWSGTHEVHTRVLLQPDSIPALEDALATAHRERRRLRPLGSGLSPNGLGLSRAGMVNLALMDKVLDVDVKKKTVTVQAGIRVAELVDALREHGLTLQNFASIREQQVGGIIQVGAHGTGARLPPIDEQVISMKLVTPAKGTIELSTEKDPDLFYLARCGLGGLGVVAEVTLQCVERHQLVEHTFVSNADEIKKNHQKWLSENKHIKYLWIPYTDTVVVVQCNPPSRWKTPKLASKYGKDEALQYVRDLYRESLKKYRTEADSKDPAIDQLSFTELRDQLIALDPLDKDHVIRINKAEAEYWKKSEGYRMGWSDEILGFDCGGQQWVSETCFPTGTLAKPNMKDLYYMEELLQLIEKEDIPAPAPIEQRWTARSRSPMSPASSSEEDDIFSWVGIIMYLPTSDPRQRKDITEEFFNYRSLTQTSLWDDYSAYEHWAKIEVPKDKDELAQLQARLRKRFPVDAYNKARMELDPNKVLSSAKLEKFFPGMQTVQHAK

[2] = biological target: T2, TaGLDH-D1 (Triticum aestivum, UniProt W5FUB4); test: as above; assay type: biochemical; conditions: 4 μM L-GalL, 60 μM cytochrome c, 50 mM Tris-HCl pH 8.0, 0.15% Triton X-100; against PEBV:GUS control
T2 construct: gene LOC123120310; crude mitochondrial fraction
T2 sequence (W5FUB4 entry or part of it): as the sequence (W5FJN8 entry or part of it) above, with R133K, T158R, T241A, Y256H, I292L, S395C counted along it

[3] = substrate: O=C1O[C@H]([C@@H](O)CO)[C@@H](O)[C@@H]1O; test: purified protein; assay type: biochemical, Triticum aestivum; conditions: 60 μM cytochrome c, 25 mM Tris-HCl pH 8.0, 25 mM NaCl

Question: For `O=C1O[C@H]([C@@H](O)CO)[C@@H](O)[C@@H]1O` [L-galactono-1,4-lactone], which “total GLDH activity” value [1] is on record?
Answer: Its value is “GLDH activity level was significantly higher in the leaves infected by PEBV:A1, PEBV:B1 or PEBV:D1”.

Question: What about the “total GLDH activity” value [2] of the same molecule?
Answer: Its value is “GLDH activity level was significantly higher in the leaves infected by PEBV:A1, PEBV:B1 or PEBV:D1”.

B1: TaGLDH-A1a (wild-type allele of TaGLDH-A1) (Triticum aestivum) (protein)
chain: YAPLPDDLHTVSNWSGTHEVHTRVLLQPDSIPALEDALATAHRERRRLRPLGSGLSPNGLGLSRAGMVNLALMDKVLDVDVKKKTVTVQAGIRVAELVDALSKHGLTLQNFASIREQQVGGIIQVGAHGTGARLPPIDEQVISMKLVTPAKGTIELSREKNPDLFYLARCGLGGLGVVAEVTLQCVERHQLVEHTFVSNADEIKKNHQNWLSENKHIKYLWIPYTDTVVVVQCNPPSRWKTPKLASKYVKDEALQHVRDLYRESLKKYRTEADSKDPAIDQLSFTELRDQLLALDPLDKDHVIRINKAEAEYWKKSEGYRMCWSDEILGFDCGGQQWVSETCFPTGTLAKPNMKDLYYMEELLQLIEEEDIPAPAPIEQRWTAHSRSPMSPASSSEEDDIFSWVGIIMYLPTSDPRQRKDITEEFFNYRSLTQTSLWDDYSAYEHWAKIEVPKDKDELAQLQARLRKRFPVDAYNKARMELDPNKVLSSAKLEKFFPGMQTVQHAR
notes: without first 78 residues (putative mitochondrial targeting peptide), N-terminal His tag, pET-30a, E. coli
Question: Which Km [3] does the source give for B1 here?
Answer: Its Km is 61.0 ± 5.4 µM.

B2: TaGLDH-A1a (wild-type allele of TaGLDH-A1) (Triticum aestivum; DEL501-501) (protein)
chain: YAPLPDDLHTVSNWSGTHEVHTRVLLQPDSIPALEDALATAHRERRRLRPLGSGLSPNGLGLSRAGMVNLALMDKVLDVDVKKKTVTVQAGIRVAELVDALSKHGLTLQNFASIREQQVGGIIQVGAHGTGARLPPIDEQVISMKLVTPAKGTIELSREKNPDLFYLARCGLGGLGVVAEVTLQCVERHQLVEHTFVSNADEIKKNHQNWLSENKHIKYLWIPYTDTVVVVQCNPPSRWKTPKLASKYVKDEALQHVRDLYRESLKKYRTEADSKDPAIDQLSFTELRDQLLALDPLDKDHVIRINKAEAEYWKKSEGYRMCWSDEILGFDCGGQQWVSETCFPTGTLAKPNMKDLYYMEELLQLIEEEDIPAPAPIEQRWTAHSRSPMSPASSSEEDDIFSWVGIIMYLPTSDPRQRKDITEFFNYRSLTQTSLWDDYSAYEHWAKIEVPKDKDELAQLQARLRKRFPVDAYNKARMELDPNKVLSSAKLEKFFPGMQTVQHAR
notes: as for B1
Question: For B2, which Km ([3]; natural allele TaGLDH-A1b (Glu501 absent), cDNA from cv. Kashibaipi) is on record?
Answer: The Km was 181.0 ± 67.1 µM.
